Reference: a melting point compilation (Tetko et al.; mined from patent text by program, amines drawn as free bases though some values may be those of a salt)

| SMILES | melting point [°C] |
| --- | --- |
| Cc1ccc(-c2cnc(-c3ccc(C(F)(F)F)cc3)s2)s1 | 150 to 152 |
| CCCCCCCCCCCCCCCCCCN=C=NCCCCCCCCCCCCCCCCCC | 65 |
| Cc1cccc2nc3n(c(=O)c12)-c1ccc(F)cc1C3=O | 300 to 301 |
| C=CCNC(=S)C(CN1CCOCC1)c1ccccn1 (stereo not drawn) | 84 to 86 |
| Cc1cccc(-c2nc(C(C)C)[nH]c2-c2ccc(F)c(-c3ccco3)c2)n1 | 78 to 90 |
| O=CC1CCC(C2CC[Si](c3ccccc3)(c3ccccc3)CC2)CC1 (stereo not drawn) | 107 |
| COC(=O)c1nc(OC)n(C)c1C(=O)OC | 62 to 63 |
| N#Cc1ccc2[nH]c(-c3ccc(-c4ccc(C#N)c(F)c4)cc3)nc2c1 | 302 to 305 |
| CC12CCC(O)CC1=CCC1C2CCC2(C)C(c3ccsc3)=CCC12 (stereo not drawn) | 215 to 219 |
| CS(=O)(=O)C(=C1CN(C(c2ccccc2)c2ccccc2)C1)c1ccc(O)cc1 | 211 |
| CCN(CC)C(=O)/C=C/C(C)Sc1nc(N)cc(Cl)n1 (stereo not drawn) | 152 to 153 |
| O=C(NCC1CCCCC1)[C@@H]1CCCN(c2cccc3c2C(=O)N(Cc2ccncc2)C3=O)C1 | 172 to 173 |
| CC(C)CC(NC(c1ccc(-c2ccc(S(C)(=O)=O)cc2)cc1)C(F)(F)F)C(=O)NC(C#N)CC(=O)OCc1ccccc1 (stereo not drawn) | 111 |
| O=C(OCCCl)c1cccc(O)c1 | 50 |
| O=C(O)c1ccc2[nH]c3c(c2c1)CC(N1C(=O)c2ccccc2C1=O)CC3 (stereo not drawn) | 345 to 348 |
| N#Cc1ccc(N2CCC(=O)CC2)nc1 | 171 to 173 |
| COC(=O)NCOC(=O)N=CNc1c(Cc2cccnc2)c[nH]c1C(=O)OC | 160 to 162 |
| CN(C)CCC1(CO)c2ccccc2N(C)c2ccccc21 | 150 |
| NC1CCN(c2cccc(Cl)n2)CC1 | 36 to 38 |
| CN(C)c1ccncc1CCCOc1ccccc1OCCCC(=O)O | 106 to 108 |

| SMILES | melting point [°C] |
| --- | --- |
| OC(Cc1ccccc1)c1nc(-c2ccncc2)cs1 (stereo not drawn) | 120 to 122 |
| CNC(=O)c1ccnc(NC(=O)N2CCC3(CCc4cc(F)ccc4O3)CC2)c1 | 175 to 176 |
| CCCCN(C(=O)C(=O)O)c1cccc(NC(=O)C(=O)O)c1 | 232 |
| CSc1ccc(N2CCN(CCCOc3ccc(C4=NCCO4)cc3)CC2)nn1 | 163 |
| CC1=C(C(=O)OCCOc2ccccc2)C(c2ccccc2C(F)(F)F)c2c(ccnc2OC(C)C)N1 (stereo not drawn) | 110 to 113 |
| O=c1ccc(C(F)(F)F)cn1Cc1ccc(F)cc1 | 70.1 to 72 |
| CSc1sc(NC(=O)OC(C)(C)C)c(NC(=O)OC(C)(C)C)c1C#N | 156 to 157 |
| c1ccc(CN2CCN(c3ccnc4ccccc34)CC2)cc1 | 105 to 106 |
| Nc1nc2ccccc2c2c1nc(CCO)n2CC1(O)CCOCC1 | 237 to 238 |
| Cc1nc(-c2ccccc2)n(-c2ccc(S(C)(=O)=O)cc2)n1 | 118 to 119 |
| O=C(O)c1ccccc1OC(F)(F)C(F)F | 158 to 160 |
| CC1OC(n2cc(F)c(NC(=O)c3ccc4c(c3)OCO4)nc2=O)C(O)C1O (stereo not drawn) | 124 to 125 |
| O=C(O)c1nc(-c2ccc(Cl)cc2Cl)n(-c2ccc(Cl)cc2)c1Br | 205 to 207 |
| O=C1CC(NCc2ccccc2)C(=O)N1Cc1ccccc1 (stereo not drawn) | 60 to 63 |
| O=C(O)c1ccccc1Nc1ccc(CCCc2ccc(Cl)c(Cl)c2)cc1 | 120 to 126 |
| O=C(O)c1cccc(NCCOCc2ccccc2)c1C(=O)O | 158 to 160 |
| O=c1[nH]c2cccnc2n1-c1ccccn1 | 235 to 238 |
| COc1ccc(OCCCc2cn(-c3ccc(C(F)(F)F)cn3)nc2C(C)C)c(CC(=O)O)c1 | 143 to 144 |
| CCOCc1nc2c(NC(=O)c3ccccc3)nc3ccccc3c2n1CC(C)(C)NS(C)(=O)=O | 80 to 83 |
| O=C1CCC(n2cnc(-c3ccc(F)cc3)c2-c2ccnc(O)n2)CC1 | 236 to 238 |

| SMILES | melting point [°C] |
| --- | --- |
| CC(C)(c1cc(Cl)ccc1O)c1cc(Cl)ccc1O | 142 |
| O=C(O)CCC(=O)c1ccc(-n2cnc3c2CCCC3)cc1 | 234 to 235 |
| Cc1ccc(S(=O)(=O)N2C(=O)[C@H]3CC=C[C@H]32)cc1 | 93 to 95 |
| S=C(NCc1cccnc1)NC(Cc1cccc2ccccc12)=Nc1ccccc1 | 162 to 163 |
| O=C(Nc1nc(NC(=O)c2cccnc2)nc(NC(=O)c2cccnc2)n1)c1cccnc1 | 276 to 278 |
| Cc1nnc2n1-c1ccc(Cl)cc1C(N1CCCC1)=NC2 | 222 to 225 |
| NC(=O)c1c(-c2ccc(F)cc2)cc2c3c1ccn3C(=O)CNC2 | 287 to 289 |
| CCCCN(Cc1ccccc1)C(=O)Nc1cccc(Cl)c1O | 59 to 62 |
| N[C@@H]1Cc2c(Br)ccc3c2[C@@H](C1)CN3C(=O)c1ccccc1 | 169 to 173 |
| Cc1nnc(-c2ccc3ncn(C4CCN(C(=O)c5ccccc5)CC4)c3c2)o1 | 158 to 159 |
| O=C(O)CCC(=O)c1ccc(-c2ccc(Br)cc2F)cc1 | 145 to 147 |
| COC(=O)CCC(C)C1CCC2C3C(O)CC4CC(NC(=O)CNC(=O)OC(C)(C)C)CCC4(C)C3CC(O)C12C (stereo not drawn) | 110 to 114 |
| OCCON=Cc1ccncc1 | 78 to 80 |
| COc1ccc(N2CCN(c3ccc(N)nc3-c3ccc(C)cc3)CC2)cc1 | 193 to 200 |
| O=C1Nc2ccccc2/C1=C/c1c[nH]c2ncccc12 | > 280 |
| CNC1CN(C(=O)Nc2ccc(C(F)(F)F)cc2)N=C1c1ccc(Cl)cc1 (stereo not drawn) | 148 to 149 |
| N#Cc1ccc(N2CCN(CC(=O)O)CC2=O)cc1 | 120 |
| COc1ccc(-c2[nH]nc3c2C(=O)c2c(NC(=O)Cc4ccccc4)cccc2-3)cc1 | 280 |
| OCCOc1cncc(Cl)c1 | 38 to 40 |
| CCOC(=O)c1ncn2c1[C@@H]1CCCN1C(=O)c1cc([N+](=O)[O-])ccc1-2 | 191 to 193 |

Next, values leading:

| melting point [°C] | SMILES |
| --- | --- |
| 127 to 129 | CCN(C)c1ccc2c(c1)CNC2=O |
| 130 to 132 | CSc1nn(-c2c(Cl)cc(C(F)(F)F)cc2Cl)c(N)c1C(=O)c1cc(C)ccc1C |
| 204 to 205 | CC(=O)Nc1cc(N)cc([N+](=O)[O-])c1 |
| 135 to 138 | COC(=O)c1cc(CSc2ccccc2)cnc1C1=NC(C)(C(C)C)C(=O)N1 (stereo not drawn) |
| 242 to 244 | N#Cc1cc(N)ccc1NC(=O)c1ccc(N)cc1 |
| 54.8 | COC(=O)C(C)Oc1ccc(C(C)=O)cc1 (stereo not drawn) |
| 53 to 55 | CCCCOC(=O)CCCOc1ccc(F)c(C(N)=O)c1F |
| 180 to 182 | CCOC(=O)C1=Cc2cc(Cl)cnc2NC1C(F)(F)F (stereo not drawn) |
| 138 | CCOC(=O)c1cccc(NC(=O)Oc2ccccc2)c1 |
| 108 to 109 | C=C1CC(COc2cccc3ccc(C)nc23)(c2ccccc2)OC1=O (stereo not drawn) |
| 66 to 68 | CC(=O)c1ccc(Oc2ccc(Cl)cc2)cc1 |
| 121 to 123 | COc1c(C)cc2c(c1C)C(c1ccc(C(C)C)cc1)C(C)(C)O2 (stereo not drawn) |
| 125 to 126 | Nc1cc(F)c(F)cc1C(=O)NOCc1ccccc1 |
| 190 to 192 | O=C(O)COc1ccc(C2=CC(=O)CC(c3ccc(F)cc3)C2)c(Cl)c1Cl (stereo not drawn) |
| 104 to 105 | COc1cc(C(C)=O)ccc1OCCCCN1CCC(C(O)(c2ccc(F)cc2)c2ccc(F)cc2)CC1 |
| 158 to 160 | CCOc1cc2c(Nc3cc(OC)c(Cl)cc3Cl)c(C#N)cnc2cc1C#CCCN1CCN(C)CC1 |
| 151 | CC1(C)OCC(COc2cc(N)c([N+](=O)[O-])cc2I)O1 (racemic) |
| 262 to 264 | CNS(=O)(=O)c1cn(C)c2ccc(OC)cc2c1=O |
| 133 to 134 | CN(C)S(=O)(=O)c1cc2c(c(Cl)c1Cl)OC(CO)C2 (stereo not drawn) |
| 220 to 226 | NC(=O)CN1C(=O)COc2cc(F)c([N+](=O)[O-])cc21 |
| 193 to 200 | CN1CCC2(CC1)OC(c1ccccc1)c1cc(O)ccc12 (stereo not drawn) |
| 145 to 147 | CCn1c(CC#N)ccc1C(=O)c1ccc(Cl)cc1 |

| melting point [°C] | SMILES |
| --- | --- |
| 307 to 308 | COc1ccc(/C(C)=C/c2ccc(C(=O)O)cc2)cc1C12CC3CC(CC(C3)C1)C2 |
| 148 to 149 | CC(C)(C)c1ccc(NC(=O)c2ccc(C3(C)OCCCO3)cc2)cc1 |
| 111 to 112 | COC(=O)C=CC(=O)c1cc(Cl)ccc1N |
| 98 to 99 | Cc1cc(C2CC2)nc(NN)n1 |
| 159 to 163 | Cc1nn(C)c2cc(-c3ccc4nnn(Cc5ccc6ncccc6c5)c4n3)ccc12 |
| 212 to 213 | CCOC(=O)c1cc(C#N)c(C)nc1O |
| 251 to 253 | Nc1c(-c2ccc(I)cc2)nc2ccc(F)cc2c1C(=O)O |
| 110 to 111 | COc1ccc(N2CCN(c3c(C)c(C)c4c(c3C)C(c3ccco3)C(C)(C)O4)CC2)cc1 (stereo not drawn) |
| 96 to 97 | CCc1c(Oc2ccc([N+](=O)[O-])cc2C(F)(F)F)nn(C(=O)NC)c1C |
| 215 to 220 | O=C1CC2(CCCC2)C(=O)N1c1cc(Cc2n[nH]c(=O)c3ccccc23)ccc1F |
| 134 | CCC(=O)C1=C(O)CC(c2ccc3sccc3c2)CC1=O (stereo not drawn) |
| 95 to 96.5 | CCOC(=O)c1cc2c(C(F)(F)F)cc(CP(=O)(OCC)OCC)cc2n1C |
| 200 to 204 | CN(Cc1cc2c(=O)c(C(=O)NCc3ccc(Cl)cc3)cn(C)c2o1)CC(O)CSc1nnc(N)s1 (stereo not drawn) |
| 63 | CCOC(=O)CSCc1cc(-c2nn(C)c(C(F)(F)F)c2Cl)c(F)cc1Cl |
| 177 | COC(=O)Nc1cc(C(C)(C)C)[nH]n1 |
| 66 to 68 | COC(=O)c1cc(C(=O)Cl)cc([N+](=O)[O-])c1 |
| 182 to 184 | Cc1c(OCCn2ccnc2)ccc2c1CC/C(=C\c1cccs1)C2=O |
| 122 to 124 | COC(=O)c1cccc(CN2CCN(c3nc(C)c(C(C)=O)s3)C2=O)c1 |
| 108 | Cc1ccc(Cn2nc(Br)c([N+](=O)[O-])c2NCc2ccccc2)cc1 |
| 108 to 109 | N#Cc1cc(Br)cc(CO)c1 |
| 92 to 94 | Cc1cc(-c2noc(C(F)(F)F)n2)cc(C)c1OCCCc1ccc(CO)nc1 |
